Test [1] relates to Mycobacterium tuberculosis. Nature of the test: Antimycobacterial activity of compound against Mycobacterium tuberculosis H37Rv at 5 ug/mL. The class given is functional.
The test system of test [2] is Mycobacterium tuberculosis. Nature of the test: Antimycobacterial activity of compound against Mycobacterium tuberculosis H37Rv at 6.25 ug/mL. Type of test: functional.
For test [3], the system named is Mycobacterium tuberculosis. Nature of the test: Antimycobacterial activity of compound against Mycobacterium tuberculosis H37Rv at 0.05 ug/mL. The class given is functional.
In test [4] the test system is Mycobacterium tuberculosis. Nature of the test: Antimycobacterial activity of compound against Mycobacterium tuberculosis H37Rv at 0.125 ug/mL. The class given is functional.
Test [5] deals with Mycobacterium tuberculosis. Nature of the test: Antimycobacterial activity of compound against Mycobacterium tuberculosis H37Rv at 1.88 ug/mL. Type of test: functional.
For test [6], the system named is Mycobacterium tuberculosis. Nature of the test: Antimycobacterial activity of compound against Mycobacterium tuberculosis H37Rv at 1.56 ug/mL. The class given is functional.
For test [7], the system named is Mycobacterium tuberculosis. Nature of the test: Antimycobacterial activity of compound against Mycobacterium tuberculosis H37Rv at 2.50 ug/mL.
Test [8] deals with Mycobacterium tuberculosis. Nature of the test: Antimycobacterial activity of compound against Mycobacterium tuberculosis H37Rv at 8 ug/mL. The class given is functional.
The test system of test [9] is Mycobacterium tuberculosis. Nature of the test: Antimycobacterial activity of compound against Mycobacterium tuberculosis H37Rv at 2 ug/mL. Type of test: functional.

Structures are written as SMILES.

Usually inhibition stands for the change of the read-out against control, counted positive when it falls. The low end stands for little suppression, the high end for strong suppression. Turning to `NC[C@H]1O[C@H](O[C@H]2[C@H](O)[C@@H](O[C@H]3O[C@H](CO)[C@@H](O)[C@H](N)C3O)[C@H](N)C[C@@H]2N)[C@H](O)[C@@H](O)[C@@H]1O` (single isomer, unassigned) [KANAMYCIN], in test [1], the inhibition at 5 µg/mL turned out to be 90%. `Cc1c(Cl)cccc1NC(=O)N/N=C/c1cccc([N+](=O)[O-])c1` gave an inhibition at 6.25 µg/mL in [2] of 58%. Regarding `Cc1c(Cl)cccc1NC(=O)N/N=C/c1ccc([N+](=O)[O-])cc1`, in test [2], the inhibition at 6.25 µg/mL came out at 24%. As to `NNC(=O)c1ccncc1` [ISONIAZID], the inhibition at 0.05 µg/mL in test [3] came out at 95%. `CO[C@H]1/C=C/O[C@@]2(C)Oc3c(C)c(O)c4c(O)c(c(/C=N/N5CCN(C)CC5)c(O)c4c3C2=O)NC(=O)/C(C)=C\C=C\[C@H](C)[C@H](O)[C@@H](C)[C@@H](O)[C@@H](C)[C@H](OC(C)=O)[C@@H]1C` [RIFAMPIN] returned an inhibition at 0.125 µg/mL in [4] of 95%. On to `CC[C@@H](CO)NCCN[C@@H](CC)CO` [ETHAMBUTOL], for which the inhibition at 1.88 µg/mL in test [5] was 90%. Compound `Cc1c(Cl)cccc1NC(=O)N/N=C/c1ccccc1O` yielded an inhibition at 6.25 µg/mL in [2] of 0%.

Compound `CC(=O)Nc1ccc(NC(=O)N/N=C/c2ccc([N+](=O)[O-])cc2)cc1` returned an inhibition at 6.25 µg/mL in test [2] of 95%. For `Cc1c(Cl)cccc1NC(=O)N/N=C/c1ccccc1[N+](=O)[O-]`, the inhibition at 6.25 µg/mL in test [2] stood at 10%. Still for that read-out and setting: next, `Cc1c(Cl)cccc1NC(=O)N/N=C/c1ccc(N(C)C)cc1`: 0%.

`CC(=O)Nc1ccc(NC(=O)N/N=C/c2cccc([N+](=O)[O-])c2)cc1` yielded an inhibition at 1.56 µg/mL in test [6] of 100%.

In [7], `CCc1cc(C(N)=S)ccn1` [ETHIONAMIDE] gave an inhibition at 2.5 µg/mL of 90%. Turning to `Nc1ccc(C(=O)O)c(O)c1` [AMINOSALICYLIC ACID], the inhibition at 8 µg/mL in [8] is 92%.

Regarding `O=C(O)c1cn(C2CC2)c2cc(N3CCNCC3)c(F)cc2c1=O` [CIPROFLOXACIN], the inhibition at 2 µg/mL in test [9] was 95%.

Take `CC(=O)Nc1ccc(NC(=O)N/N=C/c2ccccc2O)cc1`: the inhibition at 6.25 µg/mL in [2] turned out to be 5%. On the same count and under the same terms, then `CC(=O)Nc1ccc(NC(=O)N/N=C/c2ccc(N(C)C)cc2)cc1`, with 2%; and `CC(=O)Nc1ccc(NC(=O)N/N=C/c2ccccc2[N+](=O)[O-])cc1`, with 90%.
